The text below walks through data of patent publication US4623662A, “Antiatherosclerotic ureas and thioureas” (American Cyanamid Company, priority 1985, dated 1986).

In this assay the test system is cholesterol absorption. The assay is described as follows: Inhibition of cholesterol absorption in rats fed 1% cholesterol:0.5% cholic acid diet. The class given is in vivo, male Sprague-Dawley rats. The note with it: po, 336 h, rat, 2 weeks; for response vs control in vivo at 0.001 %: dose .001% of the diet; for response vs control in vivo at 0.003 %: dose .003% of the diet; for response vs control in vivo at 0.03 %: dose .03% of the diet. The protocol:
Inhibition of cholesterol absorption was determined by feeding male Sprague-Dawley rats, weighing 150-170 g, a 1% cholesterol:0.5% cholic acid diet for 2 weeks. The diet also contained compounds being tested at a dose of 0.001, 0.003, 0.01, or 0.03% of the diet. Control rats were fed the same diet without any compound. At the end of the test, the rats were sacrificed by decapitation. Blood was collected, centrifuged at […] for 10 minutes at 4° C.; and the serum was then analyzed for cholesterol and triglycerides enzymatically by the method of Trinder, P., Analyst, 77, 321 (1952) on a Centrifichem 400 analyzer. Livers were removed, a 0.4 g sample was taken from the center of the large lobe, and the sample was subjected to saponification using 25% saturated potassium hydroxide in ethanol. The resulting neutral sterols were extracted with petroleum ether and the extract analyzed for cholesterol. The effectiveness of the compound in inhibiting cholesterol absorption was measured by the lowering of either serum cholesterol or liver cholesterol relative the values for control rats.
Compounds which produced statistically significant inhibition of cholesterol absorption are considered to be active. Liver sterol (LS) and serum sterol (SS) values are expressed as a percentage of control values.

Where [1] appears, read: read-out: LS (liver sterol), percentage of control values.
[2] abbreviates: read-out: SS (serum sterol), percentage of control values.

SMILES strings stand for the structures. Where two headings read alike, the source gives them in different places.

In the case of `CCCCCCCN(Cc1ccc(CCCC(C)C)cc1)C(=O)Nc1c(F)cc(F)cc1F` [1-(n-Heptyl)-1-[4-(isohexyl)benzyl]-3-(2,4,6-trifluorophenyl)urea], the response vs control in vivo at 0.001 % is, setting by setting: under setting [1], 78%; under setting [2], 77%.

For the molecule `CCCCCCCN(Cc1ccc(CCCC(C)C)cc1)C(=O)Nc1ccc(F)cc1F` [1-(n-Heptyl)-1-[4-(isohexyl)benzyl]-3-(2,4-difluorophenyl)urea], the response vs control in vivo at 0.003 % is, setting by setting: under setting [1], 53%; under setting [2], 45%.

For `CCCCCCCN(Cc1ccc(CCCC(C)C)cc1)C(=O)Nc1c(C)cc(Cl)cc1C` [1-(n-Heptyl)-1-[4-(isohexyl)benzyl]-3-(4-chloro-2,6-dimethylphenyl)urea], the response vs control in vivo at 0.001 % worked out at 73% under setting [1] and 64% under setting [2].

On to `CCCCCCCN(Cc1ccc(OCCC(C)C)cc1)C(=O)Nc1ccc(F)cc1F` [1-(n-Heptyl)-1-[4-(isopentyloxy)benzyl]-3-(2,4-difluorophenyl)urea], for which the response vs control in vivo at 0.001 % under setting [1] is 61% and the response vs control in vivo at 0.001 % under setting [2] came out at 69%.

`CCCCCCCN(Cc1ccc(OCCC(C)C)cc1)C(=O)Nc1c(C)cc(Cl)cc1C` [1-(n-Heptyl)-1-[4-(isopentyloxy)benzyl]-3-(4-chloro-2,6-dimethylphenyl)urea]: the response vs control in vivo at 0.001 % under setting [1] was found to be 23% and the response vs control in vivo at 0.001 % under setting [2] stood at 25%.

As for `CCCCCCCN(Cc1ccc(CCCC)cc1)C(=O)Nc1ccc(C(F)(F)F)cc1` [1-(n-Heptyl)-1-[4-(n-butyl)benzyl]-3-(4-trifluoromethylphenyl)urea], the response vs control in vivo at 0.03 % reads like this: under setting [1], 88%; under setting [2], 79%.
